The text below walks through data of PMC8438627 (The Journal of Cell Biology, 2021).

SMILES strings stand for the structures.

The assay relates to NAP1L4. Kind of assay: IP-IB of HA-tagged. The class given is binding. Conditions: HA-tagged (PR)12 mixed with HEK293 cell lysates containing increasing concentrations of 1,6-hexanediol.

In the case of `OCCCCCCO` [1,6-hexanediol], the “immunoprecipitated NAP1L4 signal with increasing 1,6-hexanediol” value was “faded accordingly”.
